Experimental data published in patent US20250127906A1, “SMALL-MOLECULE DEGRADERS OF CDK8 AND CDK19” (University of South Carolina, priority 2021, published 2025).
Values belong to the compound of their own block, whether it stands above or below them.

Assays:
[1] = tested on: KMS-12-BM cells; experiment: Concentration dependence of KMS-12-BM growth inhibition (CCK-8 assay); type: cell-based; conditions: Homo sapiens, 96 h, over 4 days
Method: Concentration dependence of KMS-12-BM growth inhibition over 4 days was determined for BI-1347 CDK8/19 kinase inhibitor and IA7886 PROTAC using CCK-8 assay (FIG. 13B).

[2] = tested on: MV4-11 cells; experiment: Long-term growth of MV4-11 cells under continuous treatment; type: cell-based, human; conditions: MV4-11, 300 nM continuous
Method: (§1) The anti-proliferative effects of a PROTAC and a kinase inhibitor were compared in leukemia cell lines. In the long-term treatment experiment shown in FIG. 11A, Jurkat cells (0.1 million cells) were continuously treated with vehicle control (0.1% DMSO), 300 nM BI-1347 or 300 nM IA7886 for 53 days (each condition in biological triplicates). Every 7-8 days, live cells were counted using BioRAD TC20 Automated Cell Counter with trypan blue staining: 0.1 million live cells were passaged to a new T25 flask to propagate under the same treatment conditions. The survival fraction was calculated by dividing the accumulated number of drug-treated cells with the accumulated number of vehicle-treated cells. […] This sustained inhibition property of PROTAC was also observed in MV4-11, a leukemia cell line highly sensitive to CDK8/19 kinase inhibitors.

[3] = tested on: Jurkat cells; experiment: Long-term growth of Jurkat cells under continuous treatment; type: cell-based, human; conditions: 300 nM continuous
Method: as §1

[4] = tested on: SK-MM-2 cells; experiment: SK-MM-2 multiple myeloma cell growth over 20 days continuous treatment; type: cell-based; conditions: BI1347 200 nM, Senexin C 1 μM, IA7886 200 nM, IA7843 1 μM
Method: The following CDK8/19 kinase inhibitors were tested for their effects on MM cell lines over 20 days continuous treatment: CDK8/19 kinase inhibitors BI1347 (200 nM) and Senexin C (1 μM), BI1347-derived PROTAC IA7886 (200 nM) and Senexin C-derived PROTAC IA7843 (1 μM). 1-4 million cells were treated with vehicle control (0.1% DMSO), or CDK8/19 kinase inhibitors or PROTACs for 20 days. Every 4 days, cells were counted using BioRAD TC20 Automated Cell Counter with trypan blue staining, and the same number of cells were passaged to a new T25 flask to propagate under the same treatment conditions.

[5] = tested on: CDK8/19-regulated genes; experiment: QPCR of CDK8/19-regulated genes in HEK-293 wild-type and CDK8/19 double-knockout cells; type: cell-based, human; conditions: for effect on expression of CDK8/19-regulated genes: 200 nM, 3-day treatment
Method: CDK8/19 act as transcriptional regulators, and therefore we tested the effects of 3-day treatment with 200 nM PROTAC IA7886 along with 200 nM CDK8/19 kinase inhibitor BI-1347 on a series of CDK8/19-regulated genes, using QPCR.
We have also compared the stability of transcriptional changes induced by a PROTAC and by a kinase inhibitor. In the experiment shown in FIG. 10A, HEK-293 cells were treated with 200 nM of BI-1347 or IA7886 for 3 days, and then the inhibitors were washed off and the restoration of transcriptional changes was monitored 24 hrs and 48 hrs after wash-off.

[6] = tested on: Jurkat cells; experiment: Wash-off growth study in Jurkat cells; type: cell-based, human; conditions: pre-treated 200 nM for 8 days, then drug-free vs drug-containing media for 8 days
Method: We also compared the stability of short-term growth inhibition induced by a PROTAC and a kinase inhibitor in a wash-off study in Jurkat cells. In the experiment shown in FIG. 11C, Jurkat cells were pre-treated with 200 nM BI-1347 or IA7886 for 8 days before removal of drug-containing media and further cultured in either drug-containing (200 nM) or drug-free media for 8 days before counting cell numbers. Removal of BI-1347 led to 7.1 fold increase of the cell number while removal of IA7886 increased the cell number only 1.8 fold (FIG. 11C).

[7] = target: CDK8 (Homo sapiens, UniProt P49336); experiment: CDK8 degradation in HEK-293 cells (Western blot, normalized by GAPDH); type: cell-based; set-up: endogenous in cells; host or cells: HEK-293; conditions: HEK-293 cells
CDK8, sequence (P49336 whole entry): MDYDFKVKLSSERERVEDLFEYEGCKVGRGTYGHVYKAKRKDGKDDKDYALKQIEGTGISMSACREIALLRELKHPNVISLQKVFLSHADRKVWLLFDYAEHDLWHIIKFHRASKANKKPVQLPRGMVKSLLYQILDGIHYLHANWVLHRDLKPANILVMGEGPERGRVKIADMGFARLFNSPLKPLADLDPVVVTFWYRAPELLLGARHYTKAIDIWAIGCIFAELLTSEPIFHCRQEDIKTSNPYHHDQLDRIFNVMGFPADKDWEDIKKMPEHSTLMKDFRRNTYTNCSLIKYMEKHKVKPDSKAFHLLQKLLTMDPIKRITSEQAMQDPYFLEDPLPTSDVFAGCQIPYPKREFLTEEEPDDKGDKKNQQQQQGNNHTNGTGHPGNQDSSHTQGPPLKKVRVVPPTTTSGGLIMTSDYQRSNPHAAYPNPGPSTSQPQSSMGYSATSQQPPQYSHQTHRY
CDK8, sequence (P24863 whole entry partner): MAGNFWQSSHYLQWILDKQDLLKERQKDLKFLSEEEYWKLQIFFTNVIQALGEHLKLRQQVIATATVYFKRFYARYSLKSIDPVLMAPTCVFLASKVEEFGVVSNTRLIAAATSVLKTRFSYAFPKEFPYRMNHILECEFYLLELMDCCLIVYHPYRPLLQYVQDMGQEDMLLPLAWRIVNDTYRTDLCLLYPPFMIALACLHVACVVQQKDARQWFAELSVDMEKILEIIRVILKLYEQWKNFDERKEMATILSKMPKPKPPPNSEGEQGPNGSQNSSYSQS
Method: Table 1 presents the structures of 35 different chimeras that have been synthesized, together with their effects (at 1 μM or 0.3 μM concentrations) on CDK8 degradation in HEK-293 cells. The synthesis schemes of all the compounds are described below. CDK8 degradation was measured by Western blot analysis of RIPA lysates of HEK-293cells treated with or without the test compound for 24 hours, using antibodies against CDK8 (Santa Cruz sc-1521) and housekeeping protein GAPDH (Santa Cruz sc-32233) (loading control) Protein bands on immunoblotted PVDF membranes were visualized with Western Lighting Plus ECL detection reagent (Perkin Elmer, Waltham, MA, USA) using ChemiDoc Touch™ (Bio-Rad). Image processing and densitometry analysis were performed using ImageLab software (Bio-Rad) to quantify the CDK8 protein levels (normalized by GAPDH) and evaluate the effects of compound treatment.
(§2) FIGS. 2F and 2G show the effects of different concentrations of potent Senexin C- and BI-1347-based PROTACs on CDK8 and CDK19 degradation in HEK-293cells. Based on these assays, we calculated DC50 values that correspond to PROTAC concentrations inducing degradation of CDK8 and CDK19 to the half of protein level in untreated cells. The corresponding CDK8 DC50 values were 46 nM for IA7843, 6.6 nM for IA7882 and 2.8 nM for IA7886, and CDK19 DC50 values were 1 μM for IA7843, 25 nM for IA7882 and 10 nM for IA7886.

[8] = target: CDK19 (Homo sapiens, UniProt Q9BWU1); experiment: CDK19 degradation in HEK-293 cells (Western blot); type: cell-based; set-up: PROTACs on CDK8 and CDK19 degradation in HEK-293cells; endogenous in cells; host or cells: HEK-293; conditions: concentration degrading CDK19 to half of level in untreated cells
CDK19, sequence (Q9BWU1 whole entry): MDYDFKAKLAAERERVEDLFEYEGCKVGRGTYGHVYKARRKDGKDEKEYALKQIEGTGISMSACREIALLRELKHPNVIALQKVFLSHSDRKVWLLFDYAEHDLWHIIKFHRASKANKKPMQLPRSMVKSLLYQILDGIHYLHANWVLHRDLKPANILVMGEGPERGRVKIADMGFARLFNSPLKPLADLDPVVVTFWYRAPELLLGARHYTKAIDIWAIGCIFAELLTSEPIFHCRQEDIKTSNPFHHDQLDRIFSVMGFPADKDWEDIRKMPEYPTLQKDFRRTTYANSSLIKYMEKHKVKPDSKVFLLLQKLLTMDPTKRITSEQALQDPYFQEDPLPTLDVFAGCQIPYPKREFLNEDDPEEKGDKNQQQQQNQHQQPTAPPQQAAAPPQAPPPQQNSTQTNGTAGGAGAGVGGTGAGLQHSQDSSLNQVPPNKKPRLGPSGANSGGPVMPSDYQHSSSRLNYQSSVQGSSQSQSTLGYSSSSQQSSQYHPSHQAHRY
CDK19, sequence (P24863 whole entry partner): as the sequence (P24863 whole entry partner) above
Source text: Furthermore, the degradation of both CDK8 and CDK19 by the PROTACs is also seen to decrease the levels of their binding partner cyclin C (CCNC) (FIG. 2B, D, E), which is known to be protected from proteolytic degradation by its interaction with CDK8 (Barette et al., 2001).
as §2

[9] = tested on: RPMI 8226 cells; experiment: Concentration dependence of RPMI 8226 growth inhibition; type: cell-based; conditions: RPMI 8226, 4-day growth inhibition

SMILES: CN(C)C(=O)Cn1cc(-c2ccc(-c3cncc4ccccc34)cc2)cn1 [BI-1347, reference compound]
IC50 [1]: > 1000 nM
growth inhibition over 60 days [2]: strongly inhibited MV4-11 cells for the first 4 passages (33 days) but after that the cells became fully resistant to the kinase inhibitor
growth inhibition, first two passages (14 days) [3]: had a stronger growth inhibition effect than the PROTAC IA7886
growth rates in later passages ([3]; up to 53 days): growth rates of BI-1347 treated cells were increasing
growth inhibition over 20 days, order of efficacy [4]: BI1347<IA7886<Senexin C<IA7843
effect on expression of CDK8/19-regulated genes ([5]; CDK8/19 double-knockout (dKO) 293 cells): had no effect in dKO cells
stability of transcriptional changes after wash-off ([5]; HEK-293, 200 nM for 3 days, then 24 hrs and 48 hrs after wash-off): largely maintained 24 hrs after wash-off but mostly disappeared 48 hrs after wash-off
effect on expression of CDK8/19-regulated genes ([5]; wild-type HEK-293 cells): had similar effects on the expression of the tested genes
increase of the cell number upon removal of drug [6]: 7.1 fold

% CDK8 remaining ([7]; 24 hours, tested at 1 μM): 13%
DC50 ([7]; concentration degrading CDK8 to half of level in untreated cells): 46 nM
DC50 [8]: 1000 nM
SMILES: N#Cc1ccc2nccc(NCCc3ccc4cc(C(=O)N5CCN(C(=O)CCCCCCCCCCNC(=O)CCCNc6cccc7c6C(=O)N(C6CCC(=O)NC6=O)C7=O)CC5)ccc4c3)c2c1 (stereo not shown) [IA7843]

SMILES: CN(C)C(=O)c1ccc(N2CCCN(c3ccnc4sc(C(N)=O)c(N)c34)CC2)cc1 [SNX631-6, reference compound]
IC50 [9]: > 1000 nM
